In the test the test system is HL-60. Kind of test: Antiproliferative activity against human HL60 cells after 3 days by trypan blue staining. Conditions: HL-60, 72 h. It counts as functional.

Results on five molecules are retold here after ChEMBL document CHEMBL1157403, “Lanostane-type triterpenoids from the roots of Kadsura coccinea” (2008).

One may read the GI50 as the concentration giving 50% growth inhibition. High values mean less potent growth inhibition, low ones more potent growth inhibition.

The molecule `O=c1[nH]cc(F)c(=O)[nH]1` [FLUOROURACIL] showed a GI50 of 3.8 µM.
The value for `C=C(C)[C@@H]1CC=C2[C@H](CC[C@]3(C)[C@@H]([C@H](C)CC(=O)CC(C)C)CC[C@@]23C)[C@@]1(C)CCC(=O)O` [SECO-COCCINIC ACID A] was 6.8 µM.
Regarding `C=C(C)[C@@H]1CC=C2[C@H](CC[C@]3(C)[C@@H]([C@H](C)CC(=O)C=C(C)C)CC[C@@]23C)[C@@]1(C)CCC(=O)O` [SECO-COCCINIC ACID B], the GI50 stood at 13.3 µM.
Molecule `C=C(C)[C@@H]1CC=C2[C@H](CC[C@]3(C)[C@@H]([C@H](C)CC(=O)CC(C)(C)O)CC[C@@]23C)[C@@]1(C)CCC(=O)O` [SECO-COCCINIC ACID C] had a GI50 of 12.1 µM.
Molecule `C=C(C)[C@H](O)CC[C@@H](C)[C@H]1CC[C@@]2(C)C3=CC[C@@H](C(=C)C)[C@](C)(CCC(=O)O)[C@@H]3CC[C@]12C` [SECO-COCCINIC ACID E] yielded a concentration for 50% growth inhibition (GI50) of 42.1 µM.
